Assay results: ChEMBL document CHEMBL5257047, “Synthesis and Anti-Inflammatory Activity of the Natural Cyclooxygenase-2 Inhibitor Axinelline A and Its Analogues” (J Nat Prod, 2023)
One block for each compound: values may come before it. The source made the active and inactive calls. The rule behind the calls is not given here.

Assays:
[1] = biological target: T1, Prostaglandin G/H synthase 1 (Ovis aries) (UniProt P05979); experiment: Inhibition of ovine COX-1 using arachidonic acid as substrate at 10 uM preincubated with compound for 5 mins followed by substrate addition and measured after 2 mins by fluorescence spectrum analysis; details: time 7.0 min
T1 sequence (whole entry): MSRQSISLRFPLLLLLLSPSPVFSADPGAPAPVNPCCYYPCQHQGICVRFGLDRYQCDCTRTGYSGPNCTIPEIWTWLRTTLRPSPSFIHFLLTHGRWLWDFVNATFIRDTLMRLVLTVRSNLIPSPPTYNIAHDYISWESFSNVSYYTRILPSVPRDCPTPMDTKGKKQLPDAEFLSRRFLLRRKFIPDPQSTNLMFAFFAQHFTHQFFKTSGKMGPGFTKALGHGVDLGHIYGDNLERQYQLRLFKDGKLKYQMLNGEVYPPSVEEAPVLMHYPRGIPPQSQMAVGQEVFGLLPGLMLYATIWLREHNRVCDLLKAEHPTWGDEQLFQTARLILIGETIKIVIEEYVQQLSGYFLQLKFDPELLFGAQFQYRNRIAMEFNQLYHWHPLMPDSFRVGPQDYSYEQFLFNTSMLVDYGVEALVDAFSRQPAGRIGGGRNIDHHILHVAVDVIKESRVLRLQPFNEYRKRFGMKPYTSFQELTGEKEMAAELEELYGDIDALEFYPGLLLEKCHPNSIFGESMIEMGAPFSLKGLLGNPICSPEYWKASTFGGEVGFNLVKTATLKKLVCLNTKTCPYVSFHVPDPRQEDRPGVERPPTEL

[2] = biological target: T2, Prostaglandin G/H synthase 2 (Homo sapiens) (UniProt P35354); experiment: Inhibition of recombinant human COX-2 using arachidonic acid as substrate at 10 uM preincubated with compound for 5 mins followed by substrate addition and measured after 2 mins by fluorescence spectrum analysis; details: time 7.0 min
T2 sequence (whole entry): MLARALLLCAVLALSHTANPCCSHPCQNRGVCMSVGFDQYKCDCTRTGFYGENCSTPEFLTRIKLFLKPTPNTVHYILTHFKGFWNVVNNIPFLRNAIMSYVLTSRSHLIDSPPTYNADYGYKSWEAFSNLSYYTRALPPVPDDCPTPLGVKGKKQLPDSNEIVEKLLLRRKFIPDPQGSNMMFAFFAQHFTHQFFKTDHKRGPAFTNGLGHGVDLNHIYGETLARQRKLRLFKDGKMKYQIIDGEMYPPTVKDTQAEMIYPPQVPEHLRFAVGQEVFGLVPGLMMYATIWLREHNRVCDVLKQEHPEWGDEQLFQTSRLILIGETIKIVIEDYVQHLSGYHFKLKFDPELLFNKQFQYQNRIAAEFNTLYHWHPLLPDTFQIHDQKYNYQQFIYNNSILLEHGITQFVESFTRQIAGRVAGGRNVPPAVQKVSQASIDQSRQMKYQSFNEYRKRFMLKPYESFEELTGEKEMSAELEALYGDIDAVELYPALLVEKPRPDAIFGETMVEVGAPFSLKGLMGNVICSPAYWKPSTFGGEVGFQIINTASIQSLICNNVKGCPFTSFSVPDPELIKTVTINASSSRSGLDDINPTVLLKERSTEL

RAW264.7 [3] = experiment: Anti-inflammatory activity in mouse RAW264.7 cells assessed as decrease in LPS-induced iNOS protein expression incubated for 24 hrs by Western blot analysis; type: functional, cell-based; details: dose 2-10 µM
[4] = biological target: T3, Prostaglandin G/H synthase 1 (Ovis aries, UniProt P05979); experiment: Inhibition of ovine COX-1 using arachidonic acid as substrate preincubated with compound for 5 mins followed by substrate addition and measured after 2 mins by fluorescence spectrum analysis
T3 sequence (P05979 whole entry): T1 sequence (whole entry)

RAW264.7 [5] = experiment: Anti-inflammatory activity in mouse RAW264.7 cells assessed as decrease in LPS-induced IL-1beta production incubated for 24 hrs by ELISA analysis; type: functional, cell-based; details: dose 2-30 µM
[6] = biological target: T4, Prostaglandin G/H synthase 2 (Homo sapiens, UniProt P35354); experiment: Inhibition of recombinant human COX-2 using arachidonic acid as substrate preincubated with compound for 5 mins followed by substrate addition and measured after 2 mins by fluorescence spectrum analysis
T4 sequence (P35354 whole entry): T2 sequence (whole entry)

RAW264.7 [7] = experiment: Cytotoxicity against mouse RAW264.7 cells assessed as reduction in cell survival upto 50 uM incubated for 48 to 72 hrs by MTT assay; type: toxicity, cell-based; details: raw264.7, 50 µM, time 48-72 hrs
L02 [8] = experiment: Cytotoxicity against human L02 cells assessed as reduction in cell survival upto 50 uM incubated for 48 to 72 hrs by MTT assay; type: toxicity, cell-based; details: l02, 50 µM, time 48-72 hrs
RAW264.7 [9] = experiment: Anti-inflammatory activity in mouse RAW264.7 cells assessed as decrease in LPS-induced IL-6 production incubated for 24 hrs by ELISA analysis; type: functional, cell-based; details: dose 2-30 µM
RAW264.7 [10] = experiment: Anti-inflammatory activity in mouse RAW264.7 cells assessed as decrease in LPS-induced COX-2 protein expression incubated for 24 hrs by Western blot analysis; type: functional, cell-based; details: dose 2-10 µM
[11] = biological target: T5, Prostaglandin G/H synthase 2 (Mus musculus) (UniProt Q05769); experiment: Inhibition of COX-2 in mouse RAW264.7 cells assessed as suppression of LPS-induced PGE2 production at 2 to 30 uM incubated for 24 hrs by ELISA analysis; type: cell-based; details: dose 2-30 µM
T5 sequence (whole entry): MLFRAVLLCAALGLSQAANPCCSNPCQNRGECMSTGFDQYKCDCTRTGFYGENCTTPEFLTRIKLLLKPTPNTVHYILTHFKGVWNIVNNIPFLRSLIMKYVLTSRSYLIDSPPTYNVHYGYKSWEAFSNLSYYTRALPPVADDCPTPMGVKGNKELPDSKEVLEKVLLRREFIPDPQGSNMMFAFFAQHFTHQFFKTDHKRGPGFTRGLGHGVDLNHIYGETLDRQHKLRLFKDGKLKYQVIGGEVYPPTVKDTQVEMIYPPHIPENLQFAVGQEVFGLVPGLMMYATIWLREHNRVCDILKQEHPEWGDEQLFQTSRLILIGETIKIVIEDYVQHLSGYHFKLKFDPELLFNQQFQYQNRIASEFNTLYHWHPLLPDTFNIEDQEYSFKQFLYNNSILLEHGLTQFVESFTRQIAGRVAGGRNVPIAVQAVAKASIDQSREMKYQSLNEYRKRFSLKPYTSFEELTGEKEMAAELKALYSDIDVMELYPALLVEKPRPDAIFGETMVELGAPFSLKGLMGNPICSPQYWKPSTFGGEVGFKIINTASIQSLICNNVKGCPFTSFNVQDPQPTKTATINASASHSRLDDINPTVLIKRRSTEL

RAW264.7 [12] = experiment: Anti-inflammatory activity in mouse RAW264.7 cells assessed as decrease in LPS-induced NO production incubated for 24 hrs by Griess reagent based assay; type: functional, cell-based; details: dose 2-30 µM
L929 [13] = experiment: Cytotoxicity against mouse L929 cells assessed as reduction in cell survival at 10 uM incubated for 24 hrs by MTT assay; type: toxicity, cell-based; details: l929, 24 h
RAW264.7 [14] = experiment: Anti-inflammatory activity in mouse RAW264.7 cells assessed as decrease in LPS-induced TNF-alpha production incubated for 24 hrs by ELISA analysis; type: functional, cell-based; details: dose 2-30 µM
RAW264.7 [15] = experiment: Inhibition of NF-kappaB phosphorylation in LPS-stimulated mouse RAW264.7 cells at 2 to 30 uM preincubated with compound for 1 hrs followed by LPS-stimulation and measured after 30 mins by Western blot analysis; type: cell-based; details: dose 2-30 µM, time 1.5 hrs
[16] = biological target: T6, NF-kappa-B inhibitor alpha (Mus musculus) (UniProt Q9Z1E3); experiment: Inhibition of IkappaBalpha phosphorylation in LPS-stimulated mouse RAW264.7 cells preincubated with compound for 1 hrs followed by LPS-stimulation and measured after 30 mins by Western blot analysis; type: cell-based; details: dose 2-30 µM, time 1.5 hrs
T6 sequence (whole entry): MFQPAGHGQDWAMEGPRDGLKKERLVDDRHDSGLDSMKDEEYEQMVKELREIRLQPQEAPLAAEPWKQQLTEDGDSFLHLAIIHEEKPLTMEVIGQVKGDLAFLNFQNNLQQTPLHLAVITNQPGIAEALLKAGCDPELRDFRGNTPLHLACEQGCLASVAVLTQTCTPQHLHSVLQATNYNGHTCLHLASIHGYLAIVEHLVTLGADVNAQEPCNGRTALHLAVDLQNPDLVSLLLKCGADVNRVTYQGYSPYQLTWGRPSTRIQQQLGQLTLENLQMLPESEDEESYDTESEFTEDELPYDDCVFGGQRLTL

RAW264.7 [17] = experiment: Inhibition of IKK phosphorylation in LPS-stimulated mouse RAW264.7 cells preincubated with compound for 1 hrs followed by LPS-stimulation and measured after 30 mins by Western blot analysis; type: cell-based; details: dose 2-30 µM, time 1.5 hrs
L929 [18] = experiment: Cytotoxicity against mouse L929 cells assessed as reduction in cell survival upto 50 uM incubated for 48 to 72 hrs by MTT assay; type: toxicity, cell-based; details: l929, 50 µM, time 48-72 hrs
RAW264.7 [19] = experiment: Effect of NF-kappaB protein level in LPS-stimulated mouse RAW264.7 cells at 2 to 30 uM preincubated with compound for 1 hrs followed by LPS-stimulation and measured after 30 mins by Western blot analysis; type: functional, cell-based; details: dose 2-30 µM, time 1.5 hrs
[20] = biological target: T7, Prostaglandin G/H synthase 2 (Ovis aries, UniProt P79208); experiment: Inhibition of ovine COX-2 assessed as reduction in PGF2alpha production by enzyme immunoassay
T7 sequence (P79208 whole entry): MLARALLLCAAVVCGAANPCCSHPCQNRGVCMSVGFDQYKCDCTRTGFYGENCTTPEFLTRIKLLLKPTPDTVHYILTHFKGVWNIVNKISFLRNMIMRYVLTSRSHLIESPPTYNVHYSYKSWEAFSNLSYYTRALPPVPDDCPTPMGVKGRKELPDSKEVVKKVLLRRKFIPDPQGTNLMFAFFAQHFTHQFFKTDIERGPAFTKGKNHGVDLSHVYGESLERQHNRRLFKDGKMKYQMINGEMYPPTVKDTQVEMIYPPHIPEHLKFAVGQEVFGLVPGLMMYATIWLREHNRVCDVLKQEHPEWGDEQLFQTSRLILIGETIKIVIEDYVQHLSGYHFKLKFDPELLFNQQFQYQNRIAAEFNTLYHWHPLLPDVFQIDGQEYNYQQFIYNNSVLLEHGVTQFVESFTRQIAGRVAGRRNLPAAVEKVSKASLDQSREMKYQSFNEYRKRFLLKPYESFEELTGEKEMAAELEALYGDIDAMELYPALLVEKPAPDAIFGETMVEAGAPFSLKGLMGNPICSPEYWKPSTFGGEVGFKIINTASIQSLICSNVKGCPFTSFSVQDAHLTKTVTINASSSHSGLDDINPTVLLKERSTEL

L02 [21] = experiment: Cytotoxicity against human L02 cells assessed as reduction in cell survival at 10 uM incubated for 24 hrs by MTT assay; type: toxicity, cell-based; details: l02, 24 h
RAW264.7 [22] = experiment: Cytotoxicity against mouse RAW264.7 cells assessed as reduction in cell survival at 10 uM incubated for 24 hrs by MTT assay; type: toxicity, cell-based; details: raw264.7, 24 h

SMILES: CCOC(=O)[C@H](CO)NC(=O)c1cccc(O)c1
- inhibition [1]: Active
- inhibition [2]: Active

SMILES: CCOC(=O)[C@H](CO)NC(=O)c1ccccc1
- inhibition [1]: Active
- inhibition [2]: Active

SMILES: CCOC(=O)[C@H](CO)NC(=O)c1ccc(O)cc1
- inhibition [1]: Active
- inhibition [2]: Active

Now from value to compound, other results behind:

- inhibition [1]: Active
- inhibition [2]: Active
SMILES: CCOC(=O)[C@H](CO)NC(=O)c1ccccc1O

- IC50 [4]: 8.89 µM
- IC50 [6]: 2.22 µM
- inhibition [11]: Active
- inhibition [16]: Dose-Dependent Effect
- IC50 [20]: 2.8 µM
SMILES: CCOC(=O)[C@H](CO)NC(=O)c1cccc(O)c1O
- Activity (RAW264.7 [3]): Dose-Dependent Effect
- Activity (RAW264.7 [5]): Dose-Dependent Effect
- Activity (RAW264.7 [7]): Toxic
- Activity (L02 [8]): Toxic
- Activity (RAW264.7 [9]): Dose-Dependent Effect
- Activity (RAW264.7 [10]): Dose-Dependent Effect
- Activity (RAW264.7 [12]): Dose-Dependent Effect
- Activity (L929 [13]): Non-Toxic
- Activity (RAW264.7 [14]): Dose-Dependent Effect
- inhibition (RAW264.7 [15]): Active
- inhibition (RAW264.7 [17]): Dose-Dependent Effect
- Activity (L929 [18]): Toxic
- Activity (RAW264.7 [19]): inactive
- Activity (L02 [21]): Non-Toxic
- Activity (RAW264.7 [22]): Non-Toxic
